Assay results reported in patent US20260234130A1, “EP2 Antagonist Compounds” (Reservoir Neuroscience, Inc., priority 2022, published 2026).

Each compound was assayed against T1, EP2 receptor (Homo sapiens, UniProt P43116) (assay: EP2 potency assay (cAMP TR-FRET, LANCE Ultra cAMP kit) in transfected CHO-K1 cells stimulated with PGE2 at EC80). Settings: Table (IV), EP2 antagonism, CHO-K1 cells expressing EP2, PGE2 at EC80.
T1 construct: expressed in transfected cells; host or cells: CHO-K1 cells (ATCC), transient transfection with FuGENE 6
Format: cell-based
Method: Compound potency was measured using a cAMP TR-FRET assay. CHO-K1 cells (ATCC) were seeded at a density of 9.75×105 in 6 cm plates, and then on the following day cell media was changed to Opti-Mem I reduced serum media (Gibco), and transfected with a plasmid for expression of the EP2 receptor (the target receptor of interest), using the FuGENE 6 Transfection reagent (Promega). After 6 hours incubation, the cell media was replaced with F12 medium supplemented with 10% FBS and 100 U/ml Pen-Strep. 24 hours after transfection, cells were harvested and seeded at a density of 3000 cells/well in a 384 well plate to perform the cAMP assay, using the LANCE Ultra cAMP assay kit (PerkinElmer). For each test compound of interest, 10 nl/well of serially diluted test compound was added to each well, resulting in a range of 10 serially diluted compound concentrations from 10000 nM to 0.038 nM, with duplicate wells for each concentration. Plates were then centrifuged at 1000 rpm for 1 min, agitated at 600 rpm at R.T. for 2 min, and incubated at 25° C. for 5 min. The reference agonist, prostaglandin E2 (MCE), was added to each well at the appropriate concentration to reach its EC80 value. Plates were then centrifuged at 1000 rpm for 1 min, agitated at 600 rpm at R.T. for 2 min, and incubated at 25° C. for 30 min. To measure levels of cAMP, 5 μl/well of Eu-cAMP working solution and 5 μl/well of Ulight-anti-cAMP working solution were added to each well, and the plate was centrifuged at 1000 rpm for 1 min, agitated at 600 rpm at R.T. for 2 min, and incubated at 25° C. for 15 min. Levels of TR-FRET fluorescence were measured in each well using an EnVision microplate reader (excitation wavelength=337 nm and emission wavelength=615 and 665 nm). A dose-response curve was prepared by plotting percent inhibition for each compound concentration, and then IC50 was calculated by fitting a curve to the plotted values and extrapolating the IC50 concentration. […] Potency data is grouped into categories of AA (IC50<100 nM); A (IC50=100 to 500 nM); B (IC50=500 nM to […]); C (IC50=1 μM to 5 μM); and D (IC50>5 μM).

T1 sequence (P43116 whole entry): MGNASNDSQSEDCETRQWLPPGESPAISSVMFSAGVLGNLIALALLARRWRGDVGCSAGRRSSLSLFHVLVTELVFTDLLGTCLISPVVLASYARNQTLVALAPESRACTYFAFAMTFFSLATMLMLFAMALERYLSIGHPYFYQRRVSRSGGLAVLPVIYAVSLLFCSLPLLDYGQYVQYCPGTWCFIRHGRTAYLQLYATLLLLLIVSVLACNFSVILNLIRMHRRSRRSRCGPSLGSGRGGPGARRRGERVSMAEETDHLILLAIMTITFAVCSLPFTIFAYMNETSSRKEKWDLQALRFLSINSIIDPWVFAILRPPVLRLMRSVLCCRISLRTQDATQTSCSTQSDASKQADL

IC50 [µM]	SMILES
< 0.1	COc1ccc(C(=O)N2CCC(COc3ccc(C45CC(C#N)(C4)C5)cc3)(C(=O)O)C2)cc1 (stereo not shown) [I-6, 3-((4-(3-cyanobicyclo[1.1.1]pentan-1-yl)phenoxy)methyl)-1-(4-methoxybenzoyl)pyrrolidine-3-carboxylic acid]
> 5	COc1ccc(C(N2CCC(COc3ccc(-c4ccc(C#N)cc4)cc3)(C(=O)O)C2)C(F)(F)F)cc1 (stereo not shown) [I-2, 3-(((4′-cyano-[1,1′-biphenyl]-4-yl)oxy)methyl)-1-(2,2,2-trifluoro-1-(4-methoxyphenyl)ethyl)pyrrolidine-3-carboxylic acid]
0.1 to 0.5	COc1ccc(C(=O)N2CCC(COc3ccc(C45CC(C(N)=O)(C4)C5)cc3)(C(=O)O)C2)cc1 (stereo not shown) [I-8, 3-(4-{3-carbamoylbicyclo[1.1.1]pentan-1-yl}phenoxymethyl)-1-(4-methoxybenzoyl)pyrrolidine-3-carboxylic acid]
> 5	COc1ccc(C(=O)N2CCC(COc3ccc(Br)cc3)(C(O)C(F)(F)F)C2)cc1 (stereo not shown) [I-14, (3-((4-bromophenoxy)methyl)-3-(2,2,2-trifluoro-1-hydroxyethyl)pyrrolidin-1-yl)(4-methoxyphenyl)methanone]
> 5	COc1ccc(C(=O)N2CCC(COc3ccc(-c4ccc(C#N)cc4)cc3)(C(O)C(F)(F)F)C2)cc1 (stereo not shown) [I-12, 4′-((1-(4-methoxybenzoyl)-3-(2,2,2-trifluoro-1-hydroxyethyl)pyrrolidin-3-yl)methoxy)-[1,1′-biphenyl]-4-carbonitrile]
> 5	COc1ccc(C(=O)N2CCC(COc3ccc(-c4ccc(C#N)cc4)cc3)(C(O)(O)C(F)(F)F)C2)cc1 (stereo not shown) [I-13, 4′-((1-(4-methoxybenzoyl)-3-(2,2,2-trifluoro-1,1-dihydroxyethyl)pyrrolidin-3-yl)methoxy)-[1,1′-biphenyl]-4-carbonitrile]
0.1 to 0.5	COc1ccc(C(=O)N2CCC(COc3ccc(C45CC(C4)C5)cc3)(C(=O)O)C2)cc1 (stereo not shown) [I-7, 3-((4-(bicyclo[1.1.1]pentan-1-yl)phenoxy)methyl)-1-(4-methoxybenzoyl)pyrrolidine-3-carboxylic acid]
> 5	COc1ccc(C(=O)N2CCC(COc3ccc(-c4ccc(C#N)cc4)cc3)(S(C)(=N)=O)C2)cc1 (stereo not shown) [I-9, 4′-((1-(4-methoxybenzoyl)-3-(S-methylsulfonimidoyl)pyrrolidin-3-yl)methoxy)-[1,1′-biphenyl]-4-carbonitrile]

Same assay, conditions: Table (V), EP2 antagonism, CHO-K1 cells expressing EP2, PGE2 at EC80

SMILES	IC50 [µM]
Fc1ccc2c(ccn2-c2cc(Cl)c3c(c2)CN(Cc2cnc(C4=NCCN4)nc2)CCO3)c1 [II-26, 9-chloro-4-((2-(4,5-dihydro-1H-imidazol-2-yl)pyrimidin-5-yl)methyl)-7-(5-fluoro-1H-indol-1-yl)-2,3,4,5-tetrahydrobenzo[f][1,4]oxazepine]	> 5
Fc1ccc2c(ccn2-c2cc(Cl)c3c(c2)CN(Cc2cnc(OCC(F)(F)F)nc2)CCO3)c1 [II-1, 9-chloro-7-(5-fluoro-1H-indol-1-yl)-4-((2-(2,2,2-trifluoroethoxy)pyrimidin-5-yl)methyl)-2,3,4,5-tetrahydrobenzo [f][1,4]oxazepine]	> 5
Nc1ncc(CN2CCOc3c(Cl)cc(-n4ccc5cc(F)ccc54)cc3C2)c(=O)[nH]1 [II-16, 2-amino-5-((9-chloro-7-(5-fluoro-1H-indol-1-yl)-2,3-dihydrobenzo[f][1,4]oxazepin-4(5H)-yl)methyl)pyrimidin-4(3H)-one]	> 5
Cc1nc(Cl)nc(C)c1CN1CCOc2c(Cl)cc(-n3ccc4cc(F)ccc43)cc2C1 [II-28, 9-chloro-4-((2-chloro-4,6-dimethylpyrimidin-5-yl)methyl)-7-(5-fluoro-1H-indol-1-yl)-2,3,4,5-tetrahydrobenzo[f][1,4]oxazepine]	1 to 5
COc1ncc(CN2CCOc3c(Cl)cc(-n4ccc5cc(C6CC6)ccc54)cc3C2)cn1 [II-10, 9-chloro-7-(5-cyclopropyl-1H-indol-1-yl)-4-((2-methoxypyrimidin-5-yl)methyl)-2,3,4,5-tetrahydrobenzo[f][1,4] oxazepine]	> 5
Fc1ccc2c(ccn2-c2cc(Cl)c3c(c2)CN(Cc2cnc(-n4cccn4)nc2)CCO3)c1 [II-7, 4-((2-(1H-pyrazol-1-yl)pyrimidin-5-yl)methyl)-9-chloro-7-(5-fluoro-1H-indol-1-yl)-2,3,4,5-tetrahydrobenzo[f][1,4] oxazepine]	1 to 5
Cn1cc(-c2ncc(CN3CCOc4c(Cl)cc(-n5ccc6cc(F)ccc65)cc4C3)cn2)cn1 [II-2, 9-chloro-7-(5-fluoro-1H-indol-1-yl)-4-((2-(1-methyl-1H-pyrazol-4-yl)pyrimidin-5-yl)methyl)-2,3,4,5-tetrahydrobenzo[f][1,4] oxazepine]	1 to 5
N#Cc1ncc(CN2CCOc3c(Cl)cc(-n4ccc5cc(F)ccc54)cc3C2)cn1 [II-6, 5-((9-chloro-7-(5-fluoro-1H-indol-1-yl)-2,3-dihydrobenzo[f][1,4]oxazepin-4(5H)-yl)methyl)pyrimidine-2-carbonitrile]	0.5 to 1
Fc1ccc2c(ccn2-c2cc(Cl)c3c(c2)CN(Cc2cnc(C(F)(F)F)nc2)CCO3)c1 [II-8, 9-chloro-7-(5-fluoro-1H-indol-1-yl)-4-((2-(trifluoromethyl)pyrimidin-5-yl)methyl)-2,3,4,5-tetrahydrobenzo[f][1,4] oxazepine]	1 to 5
CC(=O)Nc1ncc(CN2CCOc3c(Cl)cc(-n4ccc5cc(F)ccc54)cc3C2)cn1 [II-14, N-(5-((9-chloro-7-(5-fluoro-1H-indol-1-yl)-2,3-dihydrobenzo[f][1,4]oxazepin-4(5H)-yl)methyl)pyrimidin-2-yl)acetamide]	1 to 5

The remaining lines, values ahead:

IC50 [µM]	SMILES
< 0.1	Nc1ncc(CN2CCOc3c(Cl)cc(-n4ccc5c(F)c(F)ccc54)cc3C2)cn1 [II-36, 5-((9-chloro-7-(4,5-difluoro-1H-indol-1-yl)-2,3-dihydrobenzo[f][1,4]oxazepin-4(5H)-yl)methyl)pyrimidin-2-amine]
< 0.1	COc1ncc(CN2CCOc3c(Cl)cc(-n4ncc5cc(F)ccc54)cc3C2)cn1 [II-33, 9-chloro-7-(5-fluoro-1H-indazol-1-yl)-4-((2-methoxypyrimidin-5-yl)methyl)-2,3,4,5-tetrahydrobenzo[f][1,4]oxazepine]
< 0.1	O=C(O)c1ncc(CN2CCOc3c(Cl)cc(-n4ccc5c(F)c(F)ccc54)cc3C2)cn1 [II-41, 5-((9-chloro-7-(4,5-difluoro-1H-indol-1-yl)-2,3-dihydrobenzo[f][1,4]oxazepin-4(5H)-yl)methyl)pyrimidine-2-carboxylic acid]
0.5 to 1	Fc1ccc2c(ccn2-c2cc(Cl)c3c(c2)CN(Cc2cnc(C4CC4)nc2)CCO3)c1 [II-21, 9-chloro-4-((2-cyclopropylpyrimidin-5-yl)methyl)-7-(5-fluoro-1H-indol-1-yl)-2,3,4,5-tetrahydrobenzo[f][1,4]oxazepine]
< 0.1	CS(=O)(=O)Nc1cc(CN2CCOc3c(Cl)cc(-n4ccc5cc(F)ccc54)cc3C2)cnn1 [II-52, N-(5-((9-chloro-7-(5-fluoro-1H-indol-1-yl)-2,3-dihydrobenzo[f][1,4]oxazepin-4(5H)-yl)methyl)pyridazin-3-yl)methanesulfonamide]
0.1 to 0.5	Cc1ncc(CN2CCOc3c(Cl)cc(-n4ccc5cc(F)ccc54)cc3C2)cn1 [II-5, 9-chloro-7-(5-fluoro-1H-indol-1-yl)-4-((2-methylpyrimidin-5-yl)methyl)-2,3,4,5-tetrahydrobenzo[f][1,4] oxazepine]
< 0.1	COc1ncc(CN2CCOc3c(Cl)cc(-c4coc5cc(F)ccc45)cc3C2)cn1 [II-48, 9-chloro-7-(6-fluorobenzofuran-3-yl)-4-((2-methoxypyrimidin-5-yl)methyl)-2,3,4,5-tetrahydrobenzo[f][1,4]oxazepine]
< 0.1	O=C(O)c1ccc(CN2CCOc3c(Cl)cc(-n4ccc5cc(F)ccc54)cc3C2)cn1 [II-15, 5-((9-chloro-7-(5-fluoro-1H-indol-1-yl)-2,3-dihydrobenzo[f][1,4]oxazepin-4(5H)-yl)methyl)picolinic acid]
0.1 to 0.5	COc1ncc(CN2CCOc3c(Cl)cc(-c4csc5cc(F)ccc45)cc3C2)cn1 [II-46, 9-chloro-7-(6-fluorobenzo[b]thiophen-3-yl)-4-((2-methoxypyrimidin-5-yl)methyl)-2,3,4,5-tetrahydrobenzo[f][1,4]oxazepine]
0.1 to 0.5	COc1ncc(CN2CCOc3c(Cl)cc(-c4coc5c(F)c(F)ccc45)cc3C2)cn1 [II-39, 9-chloro-7-(6,7-difluorobenzofuran-3-yl)-4-((2-methoxypyrimidin-5-yl)methyl)-2,3,4,5-tetrahydrobenzo[f][1,4]oxazepine]
